Earlier results as cited in patent publication US20220154222A1, “NOVEL NUCLEIC ACID MODIFIERS” (THE BROAD INSTITUTE, INC., priority 2019, published 2022).

System: Factor VII gene silencing in hepatocytes
Settings: LNP siRNA systems containing the ionizable cationic lipid; hepatocytes in vivo

Row | Compound | gene silencing potency, rank order of the series
1 | 1,2-dilinoleyloxy-keto-N,N-dimethyl-3-aminopropane [DLinKDMA] | DLinKC2-DMA>DLinKDMA>DLinDMA>>DLinDAP
2 | CCCCC/C=C\C/C=C\CCCCCCCC(=O)OCC(CN(C)C)OC(=O)CCCCCCC/C=C\C/C=C\CCCCC (stereo not shown) [DLinDAP, 1,2-dilineoyl-3-dimethylammonium-propane] | DLinKC2-DMA>DLinKDMA>DLinDMA>>DLinDAP
3 | CCCCC/C=C\C/C=C\CCCCCCCCOCC(CN(C)C)OCCCCCCCC/C=C\C/C=C\CCCCC (stereo not shown) [DLinDMA, 1,2-dilinoleyloxy-3-N,N-dimethylaminopropane] | DLinKC2-DMA>DLinKDMA>DLinDMA>>DLinDAP
4 | CCCCC/C=C\C/C=C\CCCCCCCCC1(CCCCCCCC/C=C\C/C=C\CCCCC)OCC(CCN(C)C)O1 (stereo not shown) [DLinKC2-DMA, 1,2-dilinoleyl-4-(2-dimethylaminoethyl)-[1,3]-dioxolane] | DLinKC2-DMA>DLinKDMA>DLinDMA>>DLinDAP
